Read-outs that look alike come from different tables or passages of the source.
Key:
[1] = biological target: T1, complement C5a receptor 1 (C5aR1) (Homo sapiens, UniProt P21730); assay: β-arrestin recruitment via C5aR1 activation in live CHO-K1 cells (PathHunter), antagonist mode; assay type: cell-based; conditions: antagonist mode; recombinant hC5a (EC90) as competing natural agonist; live CHO-K1 cells; read-out: [Antagonist] B-arrestin2 recruitment: Average IC50
T1 construct: β-galactosidase fragment (PathHunter enzyme complementation); host or cells: CHO-K1 (PathHunter CHO-K1 C5aR1 β-arrestin cell line)
T1 sequence (P21730 1-350): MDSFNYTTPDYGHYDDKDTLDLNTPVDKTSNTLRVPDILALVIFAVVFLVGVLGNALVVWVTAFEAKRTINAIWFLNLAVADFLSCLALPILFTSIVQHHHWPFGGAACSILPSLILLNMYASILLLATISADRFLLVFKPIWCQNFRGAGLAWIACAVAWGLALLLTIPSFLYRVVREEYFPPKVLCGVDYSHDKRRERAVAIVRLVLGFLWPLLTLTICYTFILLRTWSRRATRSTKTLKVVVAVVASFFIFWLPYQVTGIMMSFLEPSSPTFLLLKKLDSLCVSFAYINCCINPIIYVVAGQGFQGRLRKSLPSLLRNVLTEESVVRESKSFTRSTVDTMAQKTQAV
In short: (§1)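 Live CHO-K1 cells carry two galactosidase enzyme fragments, one fused to β-arrestin and one to C5aR1, so that β-arrestin recruitment restores enzyme activity. Agonist mode tests compounds alone. Antagonist mode tests them against recombinant hC5a at EC90, and IC50 values are reported in binned ranges.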

[2] = biological target: T1, complement C5a receptor 1 (C5aR1); assay: β-arrestin recruitment via C5aR1 activation in live CHO-K1 cells (PathHunter), agonist mode; assay type: cell-based
In short: as §1

Structure (SMILES)	IC50 [1] [nM]	[Agonist] B-arrestin2 recruitment: Average EC50 (nM) ([2]; at 10 μM)	[Agonist] B-arrestin2 recruitment: Average EC50 (nM) [2]
Cc1cccc(F)c1[C@H]1CC[C@H](c2cc3ncc(CC(F)F)nc3n(Cc3ncccc3C(F)(F)F)c2=O)CC1 [compound 231, 3-(2,2-Difluoroethyl)-7-((1r,4r)-4-(2-fluoro-6-methylphenyl)cyclohexyl)-5-((3-(trifluoromethyl)pyridin-2-yl)methyl)pyrido[2,3-b]pyrazin-6(5H)-one]	< 500	Non-Active at 10 μM	–
Cc1cnc2cc([C@H]3CC[C@H](c4c(C)cccc4F)CC3)c(=O)n(Cc3ncccc3CC(F)F)c2n1 [compound 232, 5-((3-(2,2-Difluoroethyl)pyridin-2-yl)methyl)-7-((1r,4r)-4-(2-fluoro-6-methylphenyl)cyclohexyl)-3-methylpyrido[2,3-b]pyrazin-6(5H)-one]	< 500	Non-Active at 10 μM	–
Cc1ccc2cc([C@H]3CC[C@H](c4c(C)cccc4F)CC3)c(=O)n(Cc3nccnc3OC(F)F)c2n1 [compound 233, 1-((3-(Difluoromethoxy)pyrazin-2-yl)methyl)-3-((1r,4r)-4-(2-fluoro-6-methylphenyl)cyclohexyl)-7-methyl-1,8-naphthyridin-2(1H)-one]	< 500	Non-Active at 10 μM	–
COc1nccc(C)c1[C@H]1CC[C@H](c2cc3ccc(C)nc3n(Cc3ncccc3C(F)(F)F)c2=O)CC1 [compound 234, 3-((1r,4r)-4-(2-Methoxy-4-methylpyridin-3-yl)cyclohexyl)-7-methyl-1-((3-(trifluoromethyl)pyridin-2-yl)methyl)-1,8-naphthyridin-2(1H)-one]	< 500	Non-Active at 10 μM	–
Cc1cnc2cc([C@H]3CC[C@H](c4c(F)cccc4F)CC3)c(=O)n(Cc3ncccc3C3CC3)c2n1 [compound 235, 5-((3-Cyclopropylpyridin-2-yl)methyl)-7-((1r,4r)-4-(2,6-difluorophenyl)cyclohexyl)-3-methylpyrido[2,3-b]pyrazin-6(5H)-one]	< 500	Non-Active at 10 μM	–
Cc1cnc2cc([C@H]3CC[C@H](c4c(F)cccc4F)CC3)c(=O)n(Cc3ncccc3CC(F)(F)F)c2n1 [compound 236, 7-((1r,4r)-4-(2,6-Difluorophenyl)cyclohexyl)-3-methyl-5-((3-(2,2,2-trifluoroethyl)pyridin-2-yl)methyl)pyrido[2,3-b]pyrazin-6(5H)-one]	< 500	Non-Active at 10 μM	–
Cc1cnc2cc([C@H]3CC[C@H](c4c(C)cncc4F)CC3)c(=O)n(Cc3ncccc3C(F)(F)F)c2n1 [compound 237, 7-((1r,4r)-4-(3-Fluoro-5-methylpyridin-4-yl)cyclohexyl)-3-methyl-5-((3-(trifluoromethyl)pyridin-2-yl)methyl)pyrido[2,3-b]pyrazin-6(5H)-one]	< 500	–	Non-Active
Cc1cnc2cc([C@H]3CC[C@H](c4c(C)cccc4F)CC3)c(=O)n(Cc3ncccc3OC3CC3)c2n1 [compound 238, 5-((3-Cyclopropoxypyridin-2-yl)methyl)-7-((1r,4r)-4-(2-fluoro-6-methylphenyl)cyclohexyl)-3-methylpyrido[2,3-b]pyrazin-6(5H)-one]	< 500	–	Non-Active
Cc1ccc2cc([C@H]3CC[C@H](c4c(C)cccc4F)CC3)c(=O)n(Cc3ncccc3CC(F)(F)F)c2n1 [compound 239, 3-((1r,4r)-4-(2-fluoro-6-methylphenyl)cyclohexyl)-7-methyl-1-((3-(2,2,2-trifluoroethyl)pyridin-2-yl)methyl)-1,8-naphthyridin-2(1H)-one]	< 500	–	Non-Active
Cc1cccc(F)c1[C@H]1CC[C@H](c2cc3ncc(C(F)F)nc3n(Cc3ncccc3C(F)(F)F)c2=O)CC1 [compound 240, 3-(Difluoromethyl)-7-((1r,4r)-4-(2-fluoro-6-methylphenyl)cyclohexyl)-5-((3-(trifluoromethyl)pyridin-2-yl)methyl)pyrido[2,3-b]pyrazin-6(5H)-one]	< 500	–	Non-Active
Cc1ccc2cc([C@H]3CC[C@H](c4c(C)cccc4F)CC3)c(=O)n(Cc3ncccc3C3CC3)c2n1 [compound 241, 1-((3-Cyclopropylpyridin-2-yl)methyl)-3-((1r,4r)-4-(2-fluoro-6-methylphenyl)cyclohexyl)-7-methyl-1,8-naphthyridin-2(1H)-one]	< 500	–	Non-Active
Cc1cnc2cc([C@H]3CC[C@H](c4cnsc4C)CC3)c(=O)n(Cc3nccnc3C(F)(F)F)c2n1 [compound 242, 3-Methyl-7-((1r,4r)-4-(5-methylisothiazol-4-yl)cyclohexyl)-5-((3-(trifluoromethyl)pyrazin-2-yl)methyl)pyrido[2,3-b]pyrazin-6(5H)-one]	< 500	–	Non-Active
Cc1ccc2cc([C@H]3CC[C@H](c4ccccc4C(F)(F)F)CC3)c(=O)n(Cc3ncccc3OC(F)(F)F)c2n1 [compound 244, 7-Methyl-1-((3-(trifluoromethoxy)pyridin-2-yl)methyl)-3-((1r,4r)-4-(2-(trifluoromethyl)phenyl)cyclohexyl)-1,8-naphthyridin-2(1H)-one]	< 500	–	Non-Active
Cc1ccc2cc([C@H]3CC[C@H](c4c(F)cccc4F)CC3)c(=O)n(Cc3ncccc3C3CC3)c2n1 [compound 245, 1-((3-Cyclopropylpyridin-2-yl)methyl)-3-((1r,4r)-4-(2,6-difluorophenyl)cyclohexyl)-7-methyl-1,8-naphthyridin-2(1H)-one]	< 500	Non-Active at 10 μM	–
Cc1ccc2cc([C@H]3CC[C@H](c4c(F)cccc4F)CC3)c(=O)n(Cc3ncccc3OC(F)(F)F)c2n1 [compound 246, 3-((1r,4r)-4-(2,6-Difluorophenyl)cyclohexyl)-7-methyl-1-((3-(trifluoromethoxy)pyridin-2-yl)methyl)-1,8-naphthyridin-2(1H)-one]	< 500	Non-Active at 10 μM	–
Cc1ccc2cc([C@H]3CC[C@H](c4cnccc4C(F)(F)F)CC3)c(=O)n(Cc3ncccc3OC(F)(F)F)c2n1 [compound 247, 7-Methyl-1-((3-(trifluoromethoxy)pyridin-2-yl)methyl)-3-((1r,4r)-4-(4-(trifluoromethyl)pyridin-3-yl)cyclohexyl)-1,8-naphthyridin-2(1H)-one]	< 500	Non-Active at 10 μM	–
Cc1ccc2cc([C@H]3CC[C@H](c4cnccc4C(F)(F)F)CC3)c(=O)n(Cc3ncccc3C3CC3)c2n1 [compound 248, 1-((3-Cyclopropylpyridin-2-yl)methyl)-7-methyl-3-((1r,4r)-4-(4-(trifluoromethyl)pyridin-3-yl)cyclohexyl)-1,8-naphthyridin-2(1H)-one]	< 500	Non-Active at 10 μM	–
Cc1cnc2cc([C@H]3CC[C@H](c4cnsc4C)CC3)c(=O)n(Cc3ncccc3C(F)(F)F)c2n1 [compound 249, 3-Methyl-7-((1r,4r)-4-(5-methylisothiazol-4-yl)cyclohexyl)-5-((3-(trifluoromethyl)pyridin-2-yl)methyl)pyrido[2,3-b]pyrazin-6(5H)-one]	< 500	Non-Active at 10 μM	–
Cc1cnc2cc([C@H]3CC[C@H](c4c(F)cccc4F)CC3)c(=O)n(Cc3ncccc3C(C)(F)F)c2n1 [compound 250, 5-((3-(1,1-Difluoroethyl)pyridin-2-yl)methyl)-7-((1r,4r)-4-(2,6-difluorophenyl)cyclohexyl)-3-methylpyrido[2,3-b]pyrazin-6(5H)-one]	< 500	Non-Active at 10 μM	–
Cc1ccc2cc([C@H]3CC[C@H](c4cnccc4C(F)(F)F)CC3)c(=O)n(Cc3ncccc3C(F)(F)F)c2n1 [compound 251, 7-Methyl-1-((3-(trifluoromethyl)pyridin-2-yl)methyl)-3-((1r,4r)-4-(4-(trifluoromethyl)pyridin-3-yl)cyclohexyl)-1,8-naphthyridin-2(1H)-one]	< 500	Non-Active at 10 μM	–
COc1nccc(C)c1[C@H]1CC[C@H](c2cc3ccc(C)nc3n(Cc3ncccc3C3CC3)c2=O)CC1 [compound 252, 1-((3-Cyclopropylpyridin-2-yl)methyl)-3-((1r,4r)-4-(2-methoxy-4-methylpyridin-3-yl)cyclohexyl)-7-methyl-1,8-naphthyridin-2(1H)-one]	< 500	Non-Active at 10 μM	–
Cc1cnc2cc([C@H]3CC[C@H](c4cnsc4C)CC3)c(=O)n(Cc3ncccc3OC(F)(F)F)c2n1 [compound 253, 3-Methyl-7-[(1r,4r)-4-(5-methyl-4-isothiazolyl)cyclohexyl]-5-[(3-trifluoromethoxy-2-pyridyl)methyl]-1,4,5-triaza-6(5H)-naphthalenone]	< 500	–	Non-Active

— patent US20260317320A1, “C5AR1 ANTAGONISTS AND USES THEREOF” (Vanqua Bio, Inc., priority 2022, published 2026)
